Measurements from patent US20250235509A1, “Formulation and Method of Preparing Glucagon-like Peptide-1 (GLP-1) for Oral Administration” (priority 2024, published 2025).
Values joined by “and” are separate entries in the source; they are usually repeats but may differ in a detail not shown here. Equal entries are not always repeated. Where two headings read alike, the source gives them in different places.

Key:
[1] = in vivo
Experimental: (§1) The concentrations of each reagent are as follows: • Liraglutide: 1.5 mM • EDTA: 5 to 10 mM • Zinc acetate: 15-100 mM Referring to FIGS. 1-7, an enzyme-linked immunosorbent assay (ELISA) was performed on the sera of mice orally administered with Liraglutide following the PSIM process.
(§2) In this assay, a mouse (at two weeks old) was gavaged with Liraglutide in contrasts to a control mouse to which no Liraglutide was administered. After two hours, serum was collected, and an ELISA assay performed.
(§3) Two hours later, serum was collected, and an ELISA assay was performed.

[2] = mouse, in vivo, po
Experimental: (§4) A quantitative ELISA assay to determine the absorption rate was also performed. The experimental mouse was sacrificed and whole body fluid collected one hour after feeding with Liraglutide. The intensity of the color was compared with that of a standard curve constructed by standard Liraglutide.
(§5) A quantitative ELISA assay was performed to determine the absorption rate, and the mice were sacrificed and whole body fluid collected one hour after feeding with Semaglutide GLP-1. […] The intensity of the color was compared with that of a standard curve constructed by standard Semaglutide GLP-1.

[3] = mouse, in vivo
Experimental: (§6) A mouse at two weeks old was gavaged with Liraglutide, or not treated with Liraglutide to serve as a control mouse. Two hours later, the pancreas of the mouse was collected and homogenized, and a protein extract was centrifuged. Thereafter the ELISA essay was conducted.
(§7) Experimental mice, at two weeks old, were gavaged with Semaglutide GLP-1 at 0.16 mg/mouse, and control mice received no orally administered Semaglutide GLP-1. Two hours later, the pancreas and brain were collected and homogenized, and protein extracts were subjected to an ELISA assay.

[4] = ELISA assay of pancreas and brain extracts of orally dosed mice; conditions: two hours after gavage at 0.16 mg/mouse, mice two weeks old
Experimental: as §6, §7

[5] = ELISA assay of sera/plasma of mice orally administered with PSIM-processed GLP-1 analog; conditions: serum collected two hours after gavage, mouse two weeks old, vs control mouse
Experimental: as §1, §2, §3

[6] = Body weight change in mice given oral GLP-1 analog; format: in vivo, mouse; conditions: for % Body Weight Change / Body Weight (Day 1) / Body Weight (Day 7): individual Exp. mice
Experimental: A quantity of orally administered Semaglutide GLP-1 was prepared as discussed in FIG. 8, and orally given to mice (Exp.) for seven days, along with control mice (Control) to which no Semaglutide GLP-1 was orally administered. Body weight was measured at the beginning and on the seventh day. The results are reflected in the following table:
In one experiment, orally administered Tirzepatide GLP-1 caused weight loss in mice. A quantity of orally administered Tirzepatide GLP-1 was prepared as discussed above, and orally given to mice (Exp.) for five days, along with control mice (Control) to which no Tirzepatide GLP-1 was orally administered. Body weight was measured at the beginning and on the fifth day.

blood glucose [7] = assay: Glucose tolerance in human subject (blood glucose AUC); format: in vivo
Experimental: A human subject was orally given 10 mg Semaglutide GLP-1 prepared as described in FIG. 8 at −2 minutes. A control human subject was not administered any Semaglutide GLP-1 At time zero, 15 g glucose was orally given. Blood glucose levels were monitored every fifteen minutes thereafter for ninety minutes. The area-under-curve (AUC), which represents the quantity of glucose in the blood was then determined.

blood glucose [8] = assay: Blood glucose in mice after oral glucose solution; format: in vivo, mouse; conditions: fasted four hours, 50 mg oral glucose
Experimental: The orally administered Liraglutide was prepared by incubating Liraglutide at 1.7 mM in 9.6 mM EDTA for two hours, followed by incubation of the mixture with 15 mM zinc acetate for twelve hours to produce a Liraglutide for oral administration. The experimental mice were orally given 0.5 mg Liraglutide, and the control mice were administered a vehicle solution for 5 days. Thereafter, experimental and control mice were fasted for four hours followed by an orally given 50 mg glucose solution. Three and a half hours later, blood glucose was determined. The control mice were given a non-Liraglutide vehicle (N=3).
The orally administered Semaglutide GLP-1 was prepared by incubating Semaglutide GLP-1 at 1.7 mM in 9.6 mM EDTA for two hours, followed by incubation of the mixture with 15 mM zinc acetate for twelve hours to produce a Semaglutide GLP-1 for oral administration. Experimental mice were orally given 0.5 mg Liraglutide, and control mice were given a vehicle solution for 5 days. Thereafter, experimental and control mice were fasted for four hours, followed by an orally given 50 mg glucose solution. Three and a half hours later blood glucose was determined. The control mice were given a non-Liraglutide vehicle (N=3).
Orally administered Tirzepatide GLP-1 was also shown to lower blood glucose levels in mice. The orally administered Tirzepatide GLP-1 was prepared in the manner discussed above. Thereafter 0.15 mg of orally administered Tirzepatide GLP-1 was fed to mice for five days. The mice were fasted for four hours, then 50 mg of a glucose solution was orally given. Three hours later, blood glucose levels were determined. In three control mice, who received no orally administered Tirzepatide GLP-1, the glucose levels in mg/dl were 93, 95, and 88, respectively. In three experimental mice that received orally administered Tirzepatide GLP-1, the glucose levels were 50, 52, and 47, respectively. […]

[9] = Quantitative ELISA assay of whole body fluid to determine the absorption rate; conditions: oral; whole body fluid collected one hour after feeding; color intensity vs standard curve
Experimental: as §4, §5

[10] = orally administered in combination with absorption enhancer such as Salcaprozate sodium (SNAC); cited from earlier work

## CCCCCCCCCCCCCCCC(=O)N[C@@H](CCC(=O)NCCCC[C@H](NC(=O)[C@H](C)NC(=O)[C@H](C)NC(=O)[C@H](CCC(N)=O)NC(=O)CNC(=O)[C@H](CCC(=O)O)NC(=O)[C@H](CC(C)C)NC(=O)[C@H](Cc1ccc(O)cc1)NC(=O)[C@H](CO)NC(=O)[C@H](CO)NC(=O)[C@@H](NC(=O)[C@H](CC(=O)O)NC(=O)[C@H](CO)NC(=O)[C@@H](NC(=O)[C@H](Cc1ccccc1)NC(=O)[C@@H](NC(=O)CNC(=O)[C@H](CCC(=O)O)NC(=O)[C@H](C)NC(=O)[C@@H](N)Cc1cnc[nH]1)[C@@H](C)O)[C@@H](C)O)C(C)C)C(=O)N[C@@H](CCC(=O)O)C(=O)N[C@@H](Cc1ccccc1)C(=O)N[C@H](C(=O)N[C@@H](C)C(=O)N[C@@H](Cc1c[nH]c2ccccc12)C(=O)N[C@@H](CC(C)C)C(=O)N[C@H](C(=O)N[C@@H](CCCNC(=N)N)C(=O)NCC(=O)N[C@@H](CCCNC(=N)N)C(=O)NCC(=O)O)C(C)C)[C@@H](C)CC)C(=O)O [Liraglutide]
[1]; po
  presence of GLP-1 in orally dosed mouse vs control, all instances FIGS. 1-4: increased presence of GLP-1
[1]; mouse
  presence in serum by ELISA (blue color): existence of Liraglutide in the serum
[2]
  absorption rate: seventy two
[3]
  time at which substance appeared in the pancreas after gavage: ninety

## Semaglutide [Semaglutide GLP-1]
[4]
  presence in brain extract by ELISA (blue color): presence of orally administered Semaglutide GLP-1 in the pancreas and brain
  presence in pancreas extract by ELISA (blue color): presence of orally administered Semaglutide GLP-1 in the pancreas and brain
[5]
  presence in serum by ELISA (blue color): existed in the experimental mouse serum
[6]; Day 1 to Day 7 of oral dosing
  % Body Weight Change: −7% and +8%
[6]; beginning of seven days oral dosing
  Body Weight (Day 1): 28 g (2×) and 24 g
[6]; seventh day of oral dosing
  Body Weight (Day 7): 26 g (2×) and 28 g
[6]; oral dosing for seven days
  body weight outcome relative to control mice: reduced weight gain or weight loss relative to the control mice
Blood glucose [7]; 10 mg orally at -2 minutes, 15 g oral glucose at time zero, monitored ninety minutes
  blood glucose area-under-curve (AUC): 232
Blood glucose [7]; 10 mg orally, 15 g oral glucose, ninety minutes
  AUC reduction vs control subject: twenty six
Blood glucose [8]; 0.5 mg orally for 5 days, measured three and a half hours later, N=3
  blood glucose (average): 45.00
Blood glucose [8]; 0.5 mg orally for 5 days, three and a half hours later
  average difference in blood glucose, control mice vs treated mice: approximately 50%
[9]
  absorption rate: approximately seventy

## Semaglutide
[10]
  bioavailability: about 0.8%

## Tirzepatide [Tirzepatide GLP-1]
[6]; beginning of five days oral dosing
  Body Weight (Day 1): 26 g and 24 g and 28 g
[6]; oral dosing for five days
  % Body Weight Change: −18% and −4.1% and −7.1%
  body weight outcome relative to control mice: reduced weight gain or weight loss relative to the control mice
[6]; oral dosing for five days, text says measured on the fifth day
  Body Weight (Day 7): 22 g and 23 g and 26 g
Blood glucose [8]; individual mice, 0.15 mg orally for five days, three hours later
  glucose levels: 50 mg/dL and 52 mg/dL and 47 mg/dL
